Experimental data reported in ChEMBL document CHEMBL5034018, “LXR-Mediated Regulation of Marine-Derived Piericidins Aggravates High-Cholesterol Diet-Induced Cholesterol Metabolism Disorder in Mice” (J Med Chem, 2021).
Active and inactive are the calls of the source. The rule behind the calls is not given here.

Assays:
Mus musculus [1] = assay: Induction of HCD-induced cholestasis in C57BL/6 mouse assessed as fold increase in liver total bile acid level at 0.8 mg/kg, ip; format: organism-based; settings: in vivo
[2] = Hepatotoxicity in renal carcinoma xenografted C57BL/6 mouse assessed as fold increase in plasma ALT at 0.8 mg/kg, ip; format: toxicity, organism-based; settings: in vivo
[3] = Effect on bile acid homeostasis in HCD-fed C57BL/6 mouse assessed as decrease in FXR mRNA expression by RT-qPCR analysis; format: functional; set-up: scale not given: the % may be the effect or the level left
[4] = Toxicity in renal carcinoma xenografted C57BL/6 mouse assessed as change in IL-6 level at 0.8 mg/kg, ip; format: organism-based; settings: in vivo
Mus musculus [5] = assay: Induction of histopathological changes in HCD-fed C57BL/6 mouse assessed as white discoloration of liver at 0.8 mg/kg, ip; format: organism-based; settings: in vivo
[6] = Down regulation of Cyp7a1 mRNA expression level in human HepG2 cells at 5 uM by RT-qPCR analysis; format: functional
[7] = Induction of LDLR mRNA level in human HepG2 cells assessed as fold increase in LDLR expression at 1 uM by RT-qPCR analysis; format: functional
[8] = Induction of Cholesterol accumulation in human HepG2 cells assessed as fold increase in LDL-cholesterol level at 5 uM after 48 hrs; format: functional
[9] = Toxicity in renal carcinoma xenografted C57BL/6 mouse assessed as effect on visceral coefficient of spleen at 0.8 mg/kg, ip; format: organism-based; settings: in vivo
Mus musculus [10] = species on record: Mus musculus; assay: Effect on bile acid homeostasis in Chow diet-fed C57BL/6 mouse assessed as change in Car protein expression; format: functional
[11] = Down regulation of Cyp7a1 mRNA expression level in human HepG2 cells at 1 uM by RT-qPCR analysis; format: functional
Mus musculus [12] = assay: Induction of HCD-induced cholestasis in C57BL/6 mouse assessed as fold increase in plasma LDL-cholesterol level at 0.8 mg/kg, ip; format: functional
[13] = Toxicity in renal carcinoma xenografted C57BL/6 mouse assessed as effect on visceral coefficient of lung at 0.8 mg/kg, ip; format: organism-based; settings: in vivo
[14] = Hepatotoxicity in renal carcinoma xenografted C57BL/6 mouse assessed as liver necrosis at 0.8 mg/kg, ip by histological analysis; format: toxicity, organism-based; settings: in vivo
Mus musculus [15] = assay: Induction of HCD-induced cholestasis in C57BL/6 mouse assessed as lipid accumulation in liver at 0.8 mg/kg, ip; format: functional, organism-based
[16] = Toxicity in renal carcinoma xenografted C57BL/6 mouse kidney assessed as change in CRE level at 0.8 mg/kg, ip; format: organism-based; settings: in vivo
HepG2 [17] = assay: Induction of apoptosis in human HepG2 cells assessed as live cells at 5 uM measured after 48 hrs by Annexin-V-FITC/propidium iodide staining based flow cytometry (reference value: 84.5 %); format: functional
[18] = Effect on bile acid homeostasis in HCD-fed C57BL/6 mouse assessed as down regulation of Ost-alpha mRNA expression by RT-qPCR analysis; format: functional
HepG2 [19] = assay: Induction of mitochondrial membrane potential loss in human HepG2 cells assessed as intact mitochondrial membrane potential at 5 uM after 48 hrs by TMRM dye based flow cytometric analysis (reference value: 74.2%); format: cell-based; settings: hepg2, 48 h
[20] = Toxicity in renal carcinoma xenografted C57BL/6 mouse assessed as effect on visceral coefficient of liver at 0.8 mg/kg, ip; format: organism-based; settings: in vivo
Mus musculus [21] = assay: Induction of HCD-induced cholestasis in C57BL/6 mouse assessed as fold increase in liver LDL-cholesterol level at 0.8 mg/kg, ip; format: organism-based; settings: in vivo
[22] = Induction of LDLR mRNA level in human HepG2 cells assessed as fold increase in LDLR expression at 5 uM by RT-qPCR analysis; format: functional
HepG2 [23] = assay: Induction of apoptosis in human HepG2 cells assessed as necrotic cells at 5 uM measured after 48 hrs by Annexin-V-FITC/propidium iodide staining based flow cytometry (reference value: 0 %); format: functional
Mus musculus [24] = assay: Induction of histopathological changes in HCD-fed C57BL/6 mouse assessed as striking subcapsular foci at 0.8 mg/kg, ip; format: organism-based; settings: in vivo
[25] = Effect on bile acid homeostasis in HCD-fed C57BL/6 mouse assessed as down regulation of Oatp1 mRNA expression by RT-qPCR analysis; format: functional
[26] = Effect on bile acid homeostasis in HCD-fed C57BL/6 mouse assessed as fold increase in LXRalpha mRNA expression by RT-qPCR analysis; format: functional
Mus musculus [27] = assay: Reversal of HCD-induced LXRalpha activation in C57BL/6 mouse assessed as decrease in LXRalpha protein level at 0.8 mg/kg, ip; format: functional; set-up: scale not given: the % may be the effect or the level left
Mus musculus [28] = species on record: Mus musculus; assay: Effect on bile acid homeostasis in HCD-fed C57BL/6 mouse assessed as change in Bsep mRNA expression by RT-qPCR analysis; format: functional
[29] = Toxicity in mouse assessed as death at 10 mg/kg, po after 45 mins; format: organism-based; settings: in vivo, 0.75 h
Mus musculus [30] = assay: Induction of hepatic pathological changes in normal chow diet fed C57BL/6 mouse at 0.8 mg/kg, ip; format: organism-based; settings: in vivo
HepG2 [31] = assay: Induction of mitochondrial dysfunction in human HepG2 cells assessed as increase in ROS production at 0.1 to 5 uM after 48 hrs by flow cytometric analysis; format: cell-based; settings: hepg2, 48 h, dose 0.1-5 µM
[32] = Down regulation of SHP mRNA level in human HepG2 cells at 5 uM by RT-qPCR analysis; format: functional
[33] = Toxicity in HCD-fed C57BL/6 mouse assessed as fold increase in AST level at 0.8 mg/kg, ip; format: organism-based; settings: in vivo
Mus musculus [34] = assay: Induction of HCD-induced cholestasis in C57BL/6 mouse assessed as large scale necrotic foci at 0.8 mg/kg, ip; format: functional, organism-based
[35] = Toxicity in renal carcinoma xenografted C57BL/6 mouse assessed as change in IL-1beta level at 0.8 mg/kg, ip; format: organism-based; settings: in vivo
Mus musculus [36] = species on record: Mus musculus; assay: Effect on bile acid homeostasis in HCD-fed C57BL/6 mouse assessed as change in Ppar-alpha mRNA expression by RT-qPCR analysis; format: functional
[37] = Inhibition of FXR protein expression level in HCD-fed C57BL/6 mouse at 0.8 mg/kg, ip; format: functional; settings: C57BL/6, ip
HepG2 [38] = assay: Induction of calcium signal in human HepG2 cells at 5 uM by Fluo-4AM dye based fluorescence assay; format: functional, cell-based
[39] = Toxicity in HCD-fed C57BL/6 mouse assessed as body weight loss at 0.8 mg/kg, ip measured on day 28; format: organism-based; settings: in vivo
[40] = Toxicity in renal carcinoma xenografted C57BL/6 mouse kidney assessed as change in BUN level at 0.8 mg/kg, ip; format: organism-based; settings: in vivo
[41] = Effect on bile acid homeostasis in HCD-fed C57BL/6 mouse assessed as inhibition of Cyp8b1 mRNA expression by RT-qPCR analysis; format: functional; set-up: scale not given: the % may be the effect or the level left
Mus musculus [42] = species on record: Mus musculus; assay: Effect on bile acid homeostasis in HCD-fed C57BL/6 mouse assessed as change in Ugt1a1 mRNA expression by RT-qPCR analysis; format: functional

For C/C=C(\C)[C@H](O)[C@H](C)/C=C(C)/C=C/C/C(C)=C/Cc1nc(OC)c(OC)c(O)c1C [PIERICIDIN A], the “fold change (FC)” value (Mus musculus [1]) was 2.2, the “fold change (FC)” value [2] was 2.6 and the Activity [3] was 58%. For the same compound, the Activity [4] was “Non-Toxic”, the Activity (Mus musculus [5]) was “Toxic” and the Activity [6] was 26%. For the same compound, the “fold change (FC)” value [7] was 2.7, the “fold change (FC)” value [8] was 2.7 and the Activity [9] was “Non-Toxic”. For the same compound, the Activity (Mus musculus [10]) was “inactive”, the Activity [11] was 27% and the “fold change (FC)” value (Mus musculus [12]) was 2.6. For the same compound, the Activity [13] was “Non-Toxic”, the Activity [14] was “Toxic” and the Activity (Mus musculus [15]) was “Active”. For the same compound, the Activity [16] was “Non-Toxic”, the Activity (HepG2 [17]) was 75.4% and the Activity [18] was 10%. For the same compound, the Activity (HepG2 [19]) was 26.4%, the Activity [20] was “Non-Toxic” and the “fold change (FC)” value (Mus musculus [21]) was 2.2. The “fold change (FC)” value [22] was 3.1, the Activity (HepG2 [23]) was 0% and the Activity (Mus musculus [24]) was “Toxic”. The Activity [25] was 66%, the “fold change (FC)” value [26] was 1.3 and the Activity (Mus musculus [27]) was 72%. For the same compound, the Activity (Mus musculus [28]) was “inactive”, the Activity [29] was “Non-Toxic” and the Activity (Mus musculus [30]) was “Non-Toxic”. For the same compound, the Activity (HepG2 [31]) was “Non-Toxic”, the Activity [32] was 30% and the “fold change (FC)” value [33] was 2.3. For the same compound, the Activity (Mus musculus [34]) was “Active”, the Activity [35] was “Non-Toxic” and the Activity (Mus musculus [36]) was “inactive”. For the same compound, the inhibition in vivo at 0.8 mg/kg [37] was 79%, the Activity (HepG2 [38]) was “Active” and the Activity [39] was “Toxic”. For the same compound, the Activity [40] was “Non-Toxic”, the Activity [41] was 2.8% and the Activity (Mus musculus [42]) was “inactive”.

In the case of C/C=C(\C)[C@H](O[C@@H]1O[C@H](CO)[C@@H](O)[C@H](O)[C@H]1O)[C@H](C)/C=C(C)/C=C/C/C(C)=C/Cc1nc(OC)c(OC)c(O)c1C, the “fold change (FC)” value (Mus musculus [1]) is reported as 2.3, the “fold change (FC)” value [2] is reported as 2.3 and the Activity [3] is reported as 60%. The Activity [4] was “Non-Toxic”, the Activity (Mus musculus [5]) was “Toxic” and the Activity [6] was 38%. The “fold change (FC)” value [7] was 2.5, the “fold change (FC)” value [8] was 3.1 and the Activity [9] was “Non-Toxic”. For the same compound, the Activity (Mus musculus [10]) was “inactive”, the Activity [11] was 51% and the “fold change (FC)” value (Mus musculus [12]) was 2.3. For the same compound, the Activity [13] was “Non-Toxic”, the Activity [14] was “Toxic” and the Activity (Mus musculus [15]) was “Active”. The Activity [16] was “Non-Toxic”, the Activity (HepG2 [17]) was 64.3% and the Activity [18] was 44%. The Activity (HepG2 [19]) was 16.6%, the Activity [20] was “Non-Toxic” and the “fold change (FC)” value (Mus musculus [21]) was 2.9. The “fold change (FC)” value [22] was 2.2, the Activity (HepG2 [23]) was 0% and the Activity (Mus musculus [24]) was “Toxic”. The Activity [25] was 65%, the “fold change (FC)” value [26] was 1.4 and the Activity (Mus musculus [27]) was 46%. For the same compound, the Activity (Mus musculus [28]) was “inactive”, the Activity [29] was “Toxic” and the Activity (Mus musculus [30]) was “Non-Toxic”. For the same compound, the Activity (HepG2 [31]) was “Non-Toxic”, the Activity [32] was 61% and the “fold change (FC)” value [33] was 2.3. The Activity (Mus musculus [34]) was “Active”, the Activity [35] was “Non-Toxic” and the Activity (Mus musculus [36]) was “inactive”. For the same compound, the inhibition in vivo at 0.8 mg/kg [37] was 31%, the Activity (HepG2 [38]) was “Active” and the Activity [39] was “Toxic”. The Activity [40] was “Non-Toxic”, the Activity [41] was 3% and the Activity (Mus musculus [42]) was “inactive”.
